Calls of active or inactive are those of the source. The calls are words filed in the database; no cut-off is given here.
Assays:
[1] = test system: BaF3; experiment: cells; conditions: Mus musculus, BaF3, 72 h
[2] = test system: BaF3; experiment: cells; conditions: Mus musculus, BaF3, 72 h; remark: listed apart in the source
[3] = test system: BaF3; experiment: cells; conditions: Mus musculus, BaF3, 72 h; remark: listed apart in the source
[4] = biological target: ALK tyrosine kinase receptor (Homo sapiens, UniProt Q9UM73); type: cell-based, Sf9
ALK tyrosine kinase receptor, sequence (Q9UM73 whole entry): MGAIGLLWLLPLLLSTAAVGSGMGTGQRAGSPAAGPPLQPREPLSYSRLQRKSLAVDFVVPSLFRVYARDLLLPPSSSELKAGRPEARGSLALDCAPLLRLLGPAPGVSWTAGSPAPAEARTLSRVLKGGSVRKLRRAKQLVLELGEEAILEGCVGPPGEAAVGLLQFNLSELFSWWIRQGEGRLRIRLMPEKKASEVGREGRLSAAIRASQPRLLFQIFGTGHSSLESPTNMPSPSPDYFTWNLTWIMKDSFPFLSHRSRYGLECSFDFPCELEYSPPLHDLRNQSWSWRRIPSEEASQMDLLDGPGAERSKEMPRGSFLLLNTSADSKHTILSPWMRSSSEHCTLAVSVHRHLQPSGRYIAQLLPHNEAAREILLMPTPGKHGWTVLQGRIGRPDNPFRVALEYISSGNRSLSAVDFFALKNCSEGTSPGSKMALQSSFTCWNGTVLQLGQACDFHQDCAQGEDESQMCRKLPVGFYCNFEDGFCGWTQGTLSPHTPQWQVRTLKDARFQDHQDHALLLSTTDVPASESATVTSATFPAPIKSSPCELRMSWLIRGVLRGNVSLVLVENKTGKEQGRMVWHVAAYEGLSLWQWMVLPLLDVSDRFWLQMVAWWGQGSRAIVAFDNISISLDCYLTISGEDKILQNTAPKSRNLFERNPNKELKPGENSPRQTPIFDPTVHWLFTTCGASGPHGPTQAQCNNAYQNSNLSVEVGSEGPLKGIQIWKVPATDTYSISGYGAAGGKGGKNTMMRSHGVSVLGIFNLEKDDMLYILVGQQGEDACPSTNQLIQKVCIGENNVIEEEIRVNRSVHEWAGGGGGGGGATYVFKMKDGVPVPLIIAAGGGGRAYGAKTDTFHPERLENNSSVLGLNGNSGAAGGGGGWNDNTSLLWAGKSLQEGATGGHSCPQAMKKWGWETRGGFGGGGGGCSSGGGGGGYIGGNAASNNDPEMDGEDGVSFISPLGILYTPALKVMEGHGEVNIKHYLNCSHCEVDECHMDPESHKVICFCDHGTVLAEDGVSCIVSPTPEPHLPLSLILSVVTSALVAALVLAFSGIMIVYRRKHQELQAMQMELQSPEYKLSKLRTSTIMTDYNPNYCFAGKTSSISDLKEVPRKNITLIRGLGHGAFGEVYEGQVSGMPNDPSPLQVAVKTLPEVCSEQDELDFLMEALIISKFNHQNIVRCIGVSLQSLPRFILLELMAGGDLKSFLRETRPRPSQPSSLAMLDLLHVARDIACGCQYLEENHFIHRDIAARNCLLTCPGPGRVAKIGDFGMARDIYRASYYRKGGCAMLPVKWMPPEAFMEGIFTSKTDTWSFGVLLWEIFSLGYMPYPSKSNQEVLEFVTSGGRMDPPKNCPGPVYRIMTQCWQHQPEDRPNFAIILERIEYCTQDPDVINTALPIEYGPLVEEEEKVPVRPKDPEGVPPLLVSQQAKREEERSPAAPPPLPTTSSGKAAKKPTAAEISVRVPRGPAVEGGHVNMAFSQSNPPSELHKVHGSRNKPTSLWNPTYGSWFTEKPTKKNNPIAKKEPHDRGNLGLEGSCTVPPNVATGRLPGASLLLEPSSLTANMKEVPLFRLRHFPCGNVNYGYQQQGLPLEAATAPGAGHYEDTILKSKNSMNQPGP

[5] = test system: KARPAS-299; experiment: Antitumor activity against human KARPAS-299 cells xenografted in nude mouse assessed as tumor growth inhibition at 100 mg/kg, po administered twice daily for 24 days; type: functional; set-up: scale not given: the % may be the effect or the level left; conditions: time 24 day
[6] = test system: SUPM2; experiment: Antiproliferative activity against human SUPM2 cells harboring crizotinib resistant ALK […] mutant assessed as inhibition of cell growth at 0.1 to 10 uM incubated for 72 hrs by MTS assay; type: functional, cell-based; conditions: dose 0.1-10 µM
[7] = Tmax in po dosed nude mouse; type: ADME, organism-based; conditions: in vivo
[8] = test system: SU-DHL-1; experiment: Antiproliferative activity against NPM-ALK positive human SU-DHL-1 cells assessed as inhibition of cell growth incubated for 72 hrs by MTS assay; type: functional, cell-based; conditions: SU-DHL-1, 72 h
[9] = biological target: Vascular endothelial growth factor receptor 2 (Homo sapiens) (UniProt P35968); experiment: Inhibition of recombinant VEGFR2 (unknown origin) at 10 uM by kinase selectivity assay relative to control
[10] = biological target: Fibroblast growth factor receptor 1 (Homo sapiens) (UniProt P11362); experiment: Inhibition of recombinant FGFR1 (unknown origin) at 10 uM by kinase selectivity assay relative to control
Fibroblast growth factor receptor 1 (Homo sapiens), sequence (P11362 22-822 limits assumed): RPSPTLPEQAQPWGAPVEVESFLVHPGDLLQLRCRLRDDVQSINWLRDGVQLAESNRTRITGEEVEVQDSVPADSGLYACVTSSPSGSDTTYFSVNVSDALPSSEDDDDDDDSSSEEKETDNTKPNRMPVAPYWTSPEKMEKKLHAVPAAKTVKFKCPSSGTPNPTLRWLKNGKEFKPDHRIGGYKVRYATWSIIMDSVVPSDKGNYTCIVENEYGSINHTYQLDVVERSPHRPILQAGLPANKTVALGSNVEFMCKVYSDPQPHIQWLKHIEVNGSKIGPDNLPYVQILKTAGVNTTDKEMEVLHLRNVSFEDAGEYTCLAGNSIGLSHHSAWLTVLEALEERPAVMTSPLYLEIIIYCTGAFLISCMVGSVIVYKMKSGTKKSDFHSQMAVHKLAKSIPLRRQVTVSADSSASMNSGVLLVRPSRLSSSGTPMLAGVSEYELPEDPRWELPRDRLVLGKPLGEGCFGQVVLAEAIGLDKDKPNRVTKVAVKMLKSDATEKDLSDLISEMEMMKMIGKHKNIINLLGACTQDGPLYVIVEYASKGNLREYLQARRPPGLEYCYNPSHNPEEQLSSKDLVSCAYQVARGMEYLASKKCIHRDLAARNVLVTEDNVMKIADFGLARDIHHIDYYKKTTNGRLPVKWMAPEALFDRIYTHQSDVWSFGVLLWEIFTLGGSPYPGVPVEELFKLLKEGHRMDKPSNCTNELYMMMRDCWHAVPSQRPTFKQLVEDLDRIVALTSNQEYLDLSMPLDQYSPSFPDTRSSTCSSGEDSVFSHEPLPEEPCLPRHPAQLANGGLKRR

[11] = test system: HL-60; experiment: Antiproliferative activity against NPM-ALK negative human HL-60 cells assessed as inhibition of cell growth incubated for 72 hrs by MTS assay; type: functional, cell-based; conditions: HL-60, 72 h
[12] = Half-life in po dosed nude mouse; type: ADME, organism-based; conditions: in vivo
[13] = test system: KARPAS-299; experiment: Antitumor activity against crizotinib-resistant human KARPAS-299 cells harboring L1196Q mutant xenografted in nude mouse assessed as tumor growth inhibition at 100 mg/kg, po administered twice daily for 24 days; type: functional, organism-based; conditions: time 24.0 day
[14] = Antiproliferative activity against NPM-ALK positive human SUPM2 cells assessed as inhibition of cell growth incubated for 72 hrs by MTS assay; type: functional, cell-based; conditions: SUP-M2, 72 h
[15] = test system: KARPAS-299; experiment: Antiproliferative activity against human KARPAS-299 cells harboring crizotinib resistant ALK L1196Q mutant assessed as inhibition of cell growth at 0.1 to 10 uM incubated for 72 hrs by MTS assay; type: functional, cell-based; conditions: dose 0.1-10 µM
[16] = test system: KARPAS-299; experiment: Antiproliferative activity against NPM-ALK positive human KARPAS-299 cells assessed as inhibition of cell growth incubated for 72 hrs by MTS assay; type: functional, cell-based; conditions: KARPAS-299, 72 h
[17] = test system: SUPM2; type: functional, cell-based; conditions: Homo sapiens, dose 0.1-10 µM, time 72.0 hrs
[18] = biological target: Epidermal growth factor receptor (Homo sapiens) (UniProt P00533); experiment: Inhibition of recombinant EGFR (unknown origin) at 10 uM by kinase selectivity assay relative to control
Epidermal growth factor receptor (Homo sapiens), sequence (P00533 whole entry): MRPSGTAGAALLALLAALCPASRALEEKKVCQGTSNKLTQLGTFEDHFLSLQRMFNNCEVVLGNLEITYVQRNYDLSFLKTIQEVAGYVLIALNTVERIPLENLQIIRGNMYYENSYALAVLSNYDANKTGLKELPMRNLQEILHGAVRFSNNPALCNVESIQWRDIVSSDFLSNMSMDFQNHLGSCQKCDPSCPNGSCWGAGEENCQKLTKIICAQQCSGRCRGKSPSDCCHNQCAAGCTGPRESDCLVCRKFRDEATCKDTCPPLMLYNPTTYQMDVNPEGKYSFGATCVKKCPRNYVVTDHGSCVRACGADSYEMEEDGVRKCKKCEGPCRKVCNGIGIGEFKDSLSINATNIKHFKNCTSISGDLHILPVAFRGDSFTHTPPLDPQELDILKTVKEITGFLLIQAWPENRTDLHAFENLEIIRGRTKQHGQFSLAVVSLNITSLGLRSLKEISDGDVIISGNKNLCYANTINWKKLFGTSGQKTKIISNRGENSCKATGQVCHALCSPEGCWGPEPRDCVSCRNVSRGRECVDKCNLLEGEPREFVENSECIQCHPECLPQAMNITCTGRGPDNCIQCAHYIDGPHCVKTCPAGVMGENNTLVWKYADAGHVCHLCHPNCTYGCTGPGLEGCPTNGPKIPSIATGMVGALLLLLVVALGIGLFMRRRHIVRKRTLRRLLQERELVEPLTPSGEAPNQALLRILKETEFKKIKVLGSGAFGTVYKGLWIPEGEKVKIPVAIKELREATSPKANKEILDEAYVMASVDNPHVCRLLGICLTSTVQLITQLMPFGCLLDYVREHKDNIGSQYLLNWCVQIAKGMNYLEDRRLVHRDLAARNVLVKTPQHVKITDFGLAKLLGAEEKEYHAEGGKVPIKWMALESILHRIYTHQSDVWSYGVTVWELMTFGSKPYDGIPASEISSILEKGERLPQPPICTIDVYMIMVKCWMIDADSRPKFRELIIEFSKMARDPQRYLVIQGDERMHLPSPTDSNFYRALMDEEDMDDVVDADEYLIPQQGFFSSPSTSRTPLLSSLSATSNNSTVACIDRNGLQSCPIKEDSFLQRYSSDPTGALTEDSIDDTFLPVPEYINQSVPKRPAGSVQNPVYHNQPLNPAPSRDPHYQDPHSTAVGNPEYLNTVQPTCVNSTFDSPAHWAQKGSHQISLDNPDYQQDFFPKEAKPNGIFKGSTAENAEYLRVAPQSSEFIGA

[19] = test system: BaF3; experiment: Cytotoxicity against mouse BaF3 cells harboring crizotinib resistant NPM/ALK I1171N mutant assessed as inhibition of cell proliferation incubated for 72 hrs by MTS assay; type: functional, cell-based; conditions: BaF3, 72 h
[20] = biological target: Insulin-like growth factor 1 receptor (Homo sapiens) (UniProt P08069); experiment: Inhibition of recombinant IGF1R (unknown origin) at 10 uM by kinase selectivity assay relative to control
Insulin-like growth factor 1 receptor (Homo sapiens), sequence (P08069 31-736 limits assumed): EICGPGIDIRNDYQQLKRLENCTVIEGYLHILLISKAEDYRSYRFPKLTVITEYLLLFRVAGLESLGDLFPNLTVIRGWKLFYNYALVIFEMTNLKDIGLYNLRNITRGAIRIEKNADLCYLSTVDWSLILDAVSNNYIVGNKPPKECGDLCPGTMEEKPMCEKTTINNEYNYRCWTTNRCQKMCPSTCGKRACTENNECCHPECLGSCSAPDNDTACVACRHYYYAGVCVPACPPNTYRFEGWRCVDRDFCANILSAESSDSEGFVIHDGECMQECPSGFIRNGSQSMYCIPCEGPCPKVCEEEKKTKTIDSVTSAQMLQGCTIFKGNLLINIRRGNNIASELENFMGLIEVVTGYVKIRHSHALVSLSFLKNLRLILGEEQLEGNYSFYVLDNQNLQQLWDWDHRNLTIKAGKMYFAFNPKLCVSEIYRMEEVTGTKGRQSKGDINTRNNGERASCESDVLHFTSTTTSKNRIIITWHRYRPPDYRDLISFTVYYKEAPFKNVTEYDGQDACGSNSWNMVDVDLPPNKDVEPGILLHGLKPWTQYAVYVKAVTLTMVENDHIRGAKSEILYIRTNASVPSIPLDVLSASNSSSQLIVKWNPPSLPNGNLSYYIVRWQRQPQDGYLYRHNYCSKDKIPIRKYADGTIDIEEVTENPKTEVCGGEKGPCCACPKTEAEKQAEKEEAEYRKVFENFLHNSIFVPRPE
Insulin-like growth factor 1 receptor (Homo sapiens), sequence (P08069 741-1367 limits assumed): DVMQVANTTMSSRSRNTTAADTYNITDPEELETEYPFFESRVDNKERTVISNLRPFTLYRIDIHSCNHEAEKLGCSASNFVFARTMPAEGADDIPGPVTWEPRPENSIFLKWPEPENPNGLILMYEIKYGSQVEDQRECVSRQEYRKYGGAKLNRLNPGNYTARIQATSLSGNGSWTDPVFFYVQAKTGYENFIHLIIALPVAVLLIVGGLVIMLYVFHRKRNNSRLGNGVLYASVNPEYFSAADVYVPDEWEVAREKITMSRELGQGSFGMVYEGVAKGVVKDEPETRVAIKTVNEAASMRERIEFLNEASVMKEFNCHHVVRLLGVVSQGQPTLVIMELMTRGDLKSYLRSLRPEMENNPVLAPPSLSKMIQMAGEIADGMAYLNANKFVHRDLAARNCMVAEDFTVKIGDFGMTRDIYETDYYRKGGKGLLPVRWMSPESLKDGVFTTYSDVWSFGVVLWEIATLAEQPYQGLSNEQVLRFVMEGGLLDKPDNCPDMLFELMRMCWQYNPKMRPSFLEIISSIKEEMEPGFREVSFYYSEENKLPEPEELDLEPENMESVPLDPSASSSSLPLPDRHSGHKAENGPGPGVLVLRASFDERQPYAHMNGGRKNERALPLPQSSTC

[21] = test system: BaF3; experiment: Cytotoxicity against mouse BaF3 cells harboring crizotinib resistant NPM/ALK F1174L mutant assessed as inhibition of cell proliferation incubated for 72 hrs by MTS assay; type: functional, cell-based; conditions: BaF3, 72 h
[22] = test system: BaF3; experiment: Cytotoxicity against mouse BaF3 cells harboring crizotinib resistant NPM/ALK C1156Y mutant assessed as inhibition of cell proliferation incubated for 72 hrs by MTS assay; type: functional, cell-based; conditions: BaF3, 72 h
[23] = test system: SUPM2; experiment: Antiproliferative activity against human SUPM2 cells harboring crizotinib resistant ALK S1206C mutant assessed as inhibition of cell growth at 0.1 to 10 uM incubated for 72 hrs by MTS assay; type: functional, cell-based; conditions: dose 0.1-10 µM

| SMILES | IC50 [1] [µM] | IC50 [2] [µM] | IC50 [3] [µM] | IC50 [4] [µM] | further results |
| --- | --- | --- | --- | --- | --- |
| CN1CCN(c2ccc(-c3ccc4[nH]c5nccc(/C=C/c6ccccc6F)c5c4c3)cc2)CC1 | 1.9 | 1.6 | 5.1 | – | – |
| COc1ccc(/C=C/c2ccnc3[nH]c4ccc(-c5ccc(N6CCN(C)CC6)cc5)cc4c23)cc1 | 0.6 | 1.6 | 4.1 | – | – |
| CN1CCN(c2ccc(-c3ccc4[nH]c5nccc(-c6ccc(-c7ccccc7)cc6)c5c4c3)cc2)CC1 | 4.3 | 2.8 | > 25 | – | – |
| C[N+]1(C)CCN(c2ccc(-c3ccc4[nH]c5nccc(C#Cc6ccccc6C(F)(F)F)c5c4c3)cc2)CC1 | 2.6 | 2.1 | 13 | – | – |
| COc1ccc(-c2ccnc3[nH]c4ccccc4c23)cc1 | – | – | – | > 10 | – |
| COC(=O)c1cc(-c2ccnc3[nH]c4ccc(-c5ccc(N6CCN(C)CC6)cc5)cc4c23)ccc1Cc1ccccc1 | – | – | – | > 10 | – |
| CN1CCN(c2ccc(-c3ccc4[nH]c5nccc(-c6cccc(-c7ccccc7)c6)c5c4c3)cc2)CC1 | 1.8 | 1.9 | 2.7 | – | – |
| CCN(CC)CCSCC(=O)c1ccc2[nH]c3nccc(Cl)c3c2c1 | – | – | – | > 10 | – |
| CN1CCN(c2ccc(-c3ccc4[nH]c5nccc(-c6ccc(-c7cccc8ccccc78)cc6)c5c4c3)cc2)CC1 | 0.4 | 0.5 | 1 | – | – |
| COc1cc(C(O)c2ccccc2)c(O)cc1-c1ccnc2[nH]c3ccc(-c4ccc(N5CCN(C)CC5)cc4)cc3c12 (stereo not given) | – | – | – | > 10 | – |
| c1ccc(Cc2ccc(-c3ccnc4[nH]c5ccc(-c6ccc(N7CCN(Cc8cccnc8)CC7)cc6)cc5c34)cc2)cc1 | – | – | – | > 10 | – |
| CN1CCN(c2ccc(-c3ccc4[nH]c5nccc(-c6ccc(Cc7ccccc7)cc6)c5c4c3)cc2)CC1 | – | – | 8.7 | – | Activity [5]: 80%; Activity [6]: Active; Tmax [7]: 4 h; IC50 [8]: 0.8 µM; inhibition [9]: > 90%; inhibition [10]: > 90%; IC50 [11]: 17 µM; half-life [12]: < 24 h; Activity [13]: Active; IC50 [14]: 1.1 µM; Activity [15]: Active; IC50 [16]: 0.7 µM; Activity [17]: Active; inhibition [18]: > 90%; IC50 [19]: 1.9 µM; inhibition [20]: > 90%; IC50 [21]: 2.4 µM; IC50 [22]: 1.3 µM; Activity [23]: Active |
| C#Cc1ccnc2[nH]c3ccc(-c4ccc(N5CCN(C)CC5)cc4)cc3c12 | – | – | – | > 10 | – |
| Cc1cc(OCc2ccc(-c3ccnc4[nH]c5ccc(-c6ccc(N7CCN(C)CC7)cc6)cc5c34)cc2)ccc1Cl | > 25 | > 25 | > 25 | – | – |
| CN1CCN(c2ccc(-c3ccc4[nH]c5nccc(C#Cc6ccccc6)c5c4c3)cc2)CC1 | 3.7 | 2.7 | 4.4 | – | – |
| CN(C)/C=C/C(=O)c1ccc2[nH]c3nccc(-c4ccc(Cc5ccccc5)cc4)c3c2c1 | – | – | – | > 10 | – |
| CN1CCN(c2ccc(-c3ccc4[nH]c5nccc(-c6ccc(C(=O)c7ccccc7)cc6)c5c4c3)cc2)CC1 | 6.1 | 1.7 | 18 | – | – |
| CN1CCN(c2ccc(-c3ccc4[nH]c5nccc(/C=C/c6ccccc6C(F)(F)F)c5c4c3)cc2)CC1 | 1.5 | 0.9 | 1.7 | – | – |
| O=[N+]([O-])c1ccccc1Nc1ccnc2[nH]c3ccccc3c12 | – | – | – | > 10 | – |
| CN1CCN(c2ccc(-c3ccc4[nH]c5nccc(/C=C/c6ccccc6)c5c4c3)cc2)CC1 | 1.6 | 1.5 | 1.1 | – | – |
| COc1cc(-c2ccnc3[nH]c4ccc(-c5ccc(N6CCN(C)CC6)cc5)cc4c23)c(OC)cc1Cc1ccccc1 | 0.8 | 0.5 | 0.8 | – | – |
| CN1CCN(c2ccc(-c3ccc4[nH]c5nccc(/C=C/c6cccc(F)c6)c5c4c3)cc2)CC1 | 2.7 | 1.8 | 9.5 | – | – |
| CN1CCN(c2ccc(-c3ccc4[nH]c5nccc(N6CCC(Cc7ccccc7)CC6)c5c4c3)cc2)CC1 | 1.2 | 0.6 | 3.3 | – | – |
